This note sets out measurements from US20100240709A1, “Sulfoximine Derivatives as p38 MAP Kinase Inhibitors” (priority 2005, published 2010).

pIC50: −log10 of the molar value.

The target of assay [1] is p38 MAP kinase (Homo sapiens, UniProt Q16539). The experiment in a line: p-38 MAPK Enzyme assay (in vitro ELISA, ATF-2 substrate). In kind it is biochemical. Conditions: ELISA detection of phosphorylated ATF-2. The text has this: The compounds were screened using an in vitro ELISA assay for p38 MAP kinase activity. Activated p38 MAP kinase during the course of its biological function phosphorylates its substrates. The assay was based on the detection of a phosphorylated p38 MAP kinase substrate using ATF-2 as the biological substrate. More the activity of the p38 MAP kinase inhibitor in the reaction mixture less will be the amount of active p38 MAP kinase available to phosphorylate ATF-2. So, lower OD value will indicate the higher inhibition of p38 MAP kinase by the specific p38 MAP kinase inhibitor. The quantitation of phosphorylated ATF-2 at varying concentrations of p38 MAP kinase inhibitor was used to determine the IC50 by fitting the results to a logistic dose-response program (Graphpad Prism, CA). IC50 was defined as the concentration of compound required to achieve 50% inhibition of p38 MAP kinase activity.
In general terms: In an ELISA, binding on a coated surface is turned into a signal by an enzyme label.

Assay [2] concerns TNF α. The experiment in a line: Ex-vivo human whole blood, LPS-induced TNF-α by ELISA. In kind it is cell-based. Conditions: LPS 1 ng/ml; for inhibition at 10 µM / inhibition at 100 µM: Homo sapiens. As for the experimental part:
(§1) Blood was collected by venous puncture from 3 different volunteers in separate heparinized (100 IU/ml) tubes and incubated in the presence of 10 μM and 100 μM of test compounds for 1 hr at 37° C. Following this LPS (1 ng/ml final concentration) was added and incubation continued for 5 hr. The reaction was terminated by placing the samples on ice for 10 min. The samples were then centrifuged, plasma separated and stored at −70° C. until the analysis of TNF-α and IL-1β by ELISA: […]

Assay [3] has as its system IL-1 β. As to the kind of experiment: Ex-vivo human whole blood, LPS-induced IL-1β by ELISA. Conditions: LPS 1 ng/ml; for inhibition at 10 µM / inhibition at 100 µM: Homo sapiens. In kind it is cell-based. As for the experimental part: as §1
The subject of assay [4] is TNF α. As to the kind of experiment: In vivo LPS induced TNF α inhibition in Balb/c mice. Conditions: 10 mg/kg orally, 30 minutes prior to i.v. LPS (50 μg/kg); blood 60 minutes after LPS. As for the experimental part: Balb/c mice were kept for acclimatization in the observation room for two days before the experiment. On the day of the experiment, animals were weighed and the test compounds to be administered calculated at a 10 mg/kg body weight basis in a total volume of 2 ml. Control groups received vehicle alone while the treatment groups received the test compound, both given orally, 30 minutes prior to intravenous injection of LPS (50 μg/kg). Blood was collected 60 minutes after the LPS injection from retro orbital plexus, the serum separated & stored in deep freeze till the estimation of TNF by ELISA method.

Sequence of p38 MAP kinase (Q16539 whole entry): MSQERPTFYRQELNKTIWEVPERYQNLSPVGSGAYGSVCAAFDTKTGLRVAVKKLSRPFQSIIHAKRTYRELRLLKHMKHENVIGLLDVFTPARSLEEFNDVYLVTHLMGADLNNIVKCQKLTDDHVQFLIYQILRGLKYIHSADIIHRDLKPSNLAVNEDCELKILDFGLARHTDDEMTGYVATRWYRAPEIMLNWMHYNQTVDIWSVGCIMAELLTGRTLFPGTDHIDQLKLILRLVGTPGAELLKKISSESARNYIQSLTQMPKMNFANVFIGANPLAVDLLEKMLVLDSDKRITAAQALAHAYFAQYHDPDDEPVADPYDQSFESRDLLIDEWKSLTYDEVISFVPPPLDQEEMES

In the case of `CCc1nc(-c2ccc(F)cc2)c(-c2ccnc(N=S(C)(=O)c3ccc(F)cc3)c2)s1` (single isomer, unassigned; (+)) [Example 44, (+)-S-Methyl-S-4-fluoro-phenyl-N-[4-(2-ethyl-4-(4-fluoro-phenyl)-1,3-thiazol-5-yl)-pyridine-2-yl]-sulfoximine], the pIC50 in assay [1] is 5.18. The “TNF α % inhibition” value was 32.74% in assay [2] (Conc 10 μM) and 95.59% in assay [2] (Conc 100 μM). Moreover, the “IL-1 β % inhibition” value in assay [3] (Conc 10 μM) is listed as 64.82%; in assay [3] (Conc 100 μM), 92.36%. Moreover, in assay [4], the “In vivo LPS induced TNF α inhibition in Balb/c mice TNF α % inhibition (10 mg/kg)” value was found to be 50.4%.
As for `CCc1nc(-c2ccc(F)cc2)c(-c2ccnc(N=S(=O)(c3ccccc3)C(C)C)c2)s1` (single isomer, unassigned; (-)) [Example 36, (−)-Isopropyl-S-phenyl-N-{4-[2-ethyl-4-(4-fluoro-phenyl)-thiazol-5-yl]-pyridin-2-yl}-sulfoximine], in assay [1], the pIC50 is 4.87. In addition, the results for the inhibition at 10 µM in assay [2] (Conc 10 μM) and in assay [3] (Conc 10 μM) were 34.3% and 38.9%, respectively. Further, the inhibition at 100 µM in assay [2] (Conc 100 μM) came out at 97.7%; in assay [3] (Conc 100 μM), 96.3%. In assay [4], the “In vivo LPS induced TNF α inhibition in Balb/c mice TNF α % inhibition (10 mg/kg)” value is reported as 43.3%.
With `CCc1nc(-c2ccccc2)c(-c2ccnc(N=S(C)(=O)c3cccc(F)c3)c2)s1` (stereo not drawn) [Example 25, S-Methyl-S-(3-fluorophenyl)-N-[4-{2-ethyl-4-phenyl-thiazol-5-yl}-pyridine]-sulfoximine], the results for the “TNF α % inhibition” value in assay [2] (Conc 10 μM) and in assay [2] (Conc 100 μM) were 15.39% and 64.06%, respectively. In addition, the “IL-1 β % inhibition” value in assay [3] (Conc 10 μM) worked out at 38.5%; in assay [3] (Conc 100 μM) it was 79.4%. Also, the “In vivo LPS induced TNF α inhibition in Balb/c mice TNF α % inhibition (10 mg/kg)” value in assay [4] is 59.6%.
In turn, `CCc1nc(-c2ccccc2)c(-c2ccnc(N=S(C)(=O)c3ccc(F)cc3)c2)s1` (centres unmarked) [Example 27] showed a pIC50 in assay [1] of 5.51.
Compound `CCc1nc(-c2ccccc2)c(-c2ccnc(N=S(=O)(c3ccccc3)C3CCCC3)c2)s1` (centres unmarked) [Example 28, S-Cyclopentyl-S-phenyl-N-[4-{2-ethyl-4-phenyl-thiazol-5-yl}-pyridine]-sulfoximine] showed a pIC50 in assay [1] of 6.34.
Same read-out and setting: in the case of `CCc1nc(-c2ccccc2)c(-c2ccnc(N=S(C)(=O)c3ccccc3)c2)s1` (centres unmarked) [Example 31] it was 5.49; in that of `CCc1nc(-c2ccccc2)c(-c2ccnc(N=S(=O)(c3ccccc3)c3ccccc3)c2)s1` [Example 32, S,S-diphenyl-N-[4-(2-ethyl-4-phenyl-thiazol-5-yl)-pyridin-2-yl]-sulfoximine], 5.00; in that of `CCc1nc(-c2ccc(F)cc2)c(-c2ccnc(N=S(C)(=O)c3ccc(OC)cc3)c2)s1` (stereo not drawn) [Example 34, S-(4-Methoxy-phenyl)-S-methyl-N-{-4-[2-ethyl-4-(4-fluoro-phenyl)-thiazol-5-yl]-pyridin-2-yl}-sulfoximine], 5.19.
`CCc1nc(-c2ccc(F)cc2)c(-c2ccnc(N=S(=O)(c3ccccc3)C(C)C)c2)s1` (centres unmarked) [Example 35, S-Isopropyl-S-phenyl-N-{-4-[2-ethyl-4-(4-fluoro-phenyl)-thiazol-5-yl]-pyridin-2-yl}-sulfoximine] had a pIC50 in assay [1] of 4.84.
As for `CCc1nc(-c2ccc(F)cc2)c(-c2ccnc(N=S(=O)(CC)c3ccccc3)c2)s1` (centres unmarked) [Example 38, S-Ethyl-S-phenyl-N-{4-[2-ethyl-4-(4-fluoro-phenyl)-thiazol-5-yl]-pyridin-2-yl}-sulfoximine], the pIC50 in assay [1] was 6.77.
`CCc1nc(-c2ccc(F)cc2)c(-c2ccnc(N=S(C)(=O)c3ccccc3)c2)s1` (centres unmarked) [Example 39, S-Methyl-S-phenyl-N-[4-(2-ethyl-4-(4-fluoro-phenyl)-1,3-thiazol-5-yl)-pyridine-2-yl]-sulfoximine]: the pIC50 in assay [1] was 5.34.
Take `CCc1nc(-c2ccc(F)cc2)c(-c2ccnc(N=S(C)(=O)c3ccc(F)cc3)c2)s1` (centres unmarked) [Example 41, S-Methyl-S-4-fluoro-phenyl-N-[4-(2-ethyl-4-(4-fluoro-phenyl)-1,3-thiazol-5-yl)-pyridine-2-yl]-sulfoximine]: the pIC50 in assay [1] is 5.85.
For the compound `CCc1nc(-c2ccc(F)cc2)c(-c2ccnc(N=S(=O)(c3ccccc3)C3CCCC3)c2)s1` (centres unmarked) [Example 42, S-Cyclopentyl-S-Phenyl-N-[4-(2-ethyl-4-(4-fluorophenyl)-1,3-thiazol-5-yl)-pyridine-2-yl]-sulfoximine], the pIC50 in assay [1] is 5.15.
Same read-out and setting: in the case of `CCc1nc(-c2ccc(F)cc2)c(-c2ccnc(N=S(=O)(c3ccccc3)c3ccccc3)c2)s1` [Example 45, S,S-Diphenyl-N-[4-(2-ethyl-4-(4-fluorophenyl)-thiazol-5-yl)-pyridin-2-yl]-sulfoximine] it was 5.87.
Take `CCc1nc(-c2ccc(F)cc2)c(-c2ccnc(N=S(C)(=O)c3cccc(C)c3)c2)s1` (centres unmarked) [Example 46, S-Methyl-S-3-methylphenyl-N-[4-(2-ethyl-4-fluorophenyl-thiazol-5-yl)-pyridine]-sulfoximine]: the “TNF α % inhibition” value in assay [2] (Conc 10 μM) amounted to 40.9%; in assay [2] (Conc 100 μM), 90.1%. Further, the “IL-1 β % inhibition” value in assay [3] (Conc 10 μM) worked out at 73.3%; in assay [3] (Conc 100 μM) it was 95.8%. Moreover, the “In vivo LPS induced TNF α inhibition in Balb/c mice TNF α % inhibition (10 mg/kg)” value in assay [4] was 56.80%.
In the case of `CCc1nc(-c2ccc(F)cc2)c(-c2ccnc(N=S(C)(=O)c3cccc(F)c3)c2)s1` (centres unmarked) [Example 47, S-Methyl-S-3-fluorophenyl-N-[4-{2-ethyl-4-(4-fluorophenyl)-thiazol-5-yl}-pyridine-2-yl]-sulfoximine], the inhibition at 10 µM in assay [2] (Conc 10 μM) was 24.4%; in assay [3] (Conc 10 μM), 78.1%. The inhibition at 100 µM in assay [2] (Conc 100 μM) stood at 89.6%; in assay [3] (Conc 100 μM), 98.5%. For the same compound, the “In vivo LPS induced TNF α inhibition in Balb/c mice TNF α % inhibition (10 mg/kg)” value in assay [4] came out at 48.60%.
On to `CCc1nc(-c2cccc(F)c2)c(-c2ccnc(N=S(C)(=O)c3ccccc3)c2)s1` (centres unmarked) [Example 50, S-Methyl-S-phenyl-N-[4-(2-ethyl-4-(3-fluoro-phenyl)-1,3-thiazol-5-yl)-pyridine-2-yl]-sulfoximine], for which the pIC50 in assay [1] is 5.36.
The compound `CCc1nc(-c2cccc3ccccc23)c(-c2ccnc(N=S(C)(=O)c3ccccc3)c2)s1` (centres unmarked) [Example 53, S-Methyl-S-phenyl-N-{4-[2-ethyl-4-napthalene-1-yl-thiazol-5-yl]-pyridin-2-yl}-sulfoximine] gave a pIC50 in assay [1] of 5.72.
Same read-out and setting: the value for `CCc1nc(-c2cccc(C(F)(F)F)c2)c(-c2ccnc(N=S(C)(=O)c3ccccc3)c2)s1` (centres unmarked) [Example 54, S-Methyl-S-phenyl-N-{4-[2-ethyl-4-(3-trifluoromethylphenyl)-thiazol-5-yl]-pyridin-2-yl}sulfoximine] was 5.32.
The compound `Cc1cccc(-c2nc(-c3ccc([S+](C)[O-])cc3)sc2-c2ccnc(N=S(C)(=O)c3ccccc3)c2)c1` (centres unmarked) [Example 57, S-Methyl-S-phenyl-N-{-4-[2-(4-methylsulfinyl-phenyl)-4-m-tolyl-thiazol-5-yl]-pyridin-2-yl}-sulfoximine] gave a pIC50 in assay [1] of 5.19.
Regarding `CCc1nc(-c2ccc(F)c(F)c2)c(-c2ccnc(N=S(C)(=O)c3ccccc3)c2)s1` (centres unmarked) [Example 58, S-Methyl-S-phenyl-N-{4-[2-ethyl-4-(3,4-difluorophenyl)-thiazol-5-yl]pyridin-2-yl}-sulfoximine], the pIC50 in assay [1] was 6.00.
For `CCc1nc(-c2ccc(F)c(F)c2)c(-c2ccnc(N=S(C)(=O)c3ccc(F)cc3)c2)s1` (stereo not drawn) [Example 59, S-Methyl-S-(4-fluorophenyl)-N-{-4-[2-ethyl-4-(3,4-difluorophenyl)-thiazol-5-yl]pyridin-2-yl}-sulfoximine], in assay [1], the pIC50 is 5.18.
Compound `CCc1nc(-c2ccc(C)cc2)c(-c2ccnc(N=S(C)(=O)c3ccccc3)c2)s1` (centres unmarked) [Example 64, S-Methyl-S-phenyl-N-{4-[2-ethyl-4-p-tolyl-thiazol-5-yl]-pyridin-2-yl}-sulfoximine] gave a pIC50 in assay [1] of 5.03.
For `O=S(=Nc1cc(-c2scnc2-c2cccc(F)c2)ccn1)(c1ccccc1)C1CCCC1` (centres unmarked) [Example 70], the pIC50 in assay [1] is 5.09.
`CS(=O)(=Nc1cc(-c2scnc2-c2cccc(F)c2)ccn1)c1ccccc1` (centres unmarked) [Example 71] had a pIC50 in assay [1] of 4.59.
In turn, `CC(C)S(=O)(=Nc1cc(-c2scnc2-c2cccc(F)c2)ccn1)c1ccccc1` (centres unmarked) [Example 72] gave a pIC50 in assay [1] of 5.41.
As for `CC(C)S(=O)(=Nc1cc(-c2scnc2-c2ccc(F)cc2)ccn1)c1ccccc1` (centres unmarked) [Example 74], in assay [1], the pIC50 was 5.12.
Regarding `O=S(=Nc1cc(-c2scnc2-c2ccc(F)cc2)ccn1)(c1ccccc1)C1CCCC1` (centres unmarked) [Example 75], the pIC50 in assay [1] was 4.90.

Usually pIC50 stands for the IC50 on a negative log10 scale, so that one unit is a factor of ten. Low readings indicate a large IC50, high ones a small IC50. Broadly, the inhibition is how much of the control response was suppressed. Read a low inhibition as little suppression.
